Assay results reported in ChEMBL document CHEMBL1201862, “PubChem BioAssay data set” (2004).
Active and inactive are the calls of the source.

Key:
Galanin receptor type 3 = biological target: T1, Galanin receptor type 3 (Homo sapiens, UniProt O60755); assay: Fluorescence-based cell-based primary high throughput dose response assay to identify antagonists of the Galanin Receptor 3 (GalR3).; type: functional
T1 sequence (O60755 whole entry): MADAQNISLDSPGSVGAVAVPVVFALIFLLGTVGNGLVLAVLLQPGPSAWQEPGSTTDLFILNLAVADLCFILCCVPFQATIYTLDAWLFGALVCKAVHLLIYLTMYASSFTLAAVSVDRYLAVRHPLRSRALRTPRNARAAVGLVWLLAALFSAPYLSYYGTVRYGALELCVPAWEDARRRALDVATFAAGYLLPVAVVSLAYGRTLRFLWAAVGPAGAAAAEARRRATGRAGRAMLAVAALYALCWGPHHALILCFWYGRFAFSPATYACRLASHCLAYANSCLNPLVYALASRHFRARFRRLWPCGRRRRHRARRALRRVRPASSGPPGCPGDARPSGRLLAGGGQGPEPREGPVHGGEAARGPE

cells [1] = type: functional, cell-based; conditions: HEK-CNG
[2] = reduction of Shn3 3'UTR-driven luciferase in osteoblasts – cell-based, Clone20 osteoblasts, firefly luciferase, cherry-picked, dose response (AID 624132); type: functional;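 also: firefly luciferase luminescence from reporter carrying the Shn3 3'UTR in osteoblasts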
[3] = loss of viability in HepG2 cells – cell-based, CellTiter-Glo, cherry-picked, cytotoxicity control for Shn3 inhibitor project, dose response (AID 624134); type: functional
[4] = non-specific 3'UTR reporter inhibition in Clone20-Shn3RL – cell-based, Renilla luciferase, cherry-picked, counter-screen for Shn3 inhibitor project, dose response (AID 624133); type: functional
[5] = biological target: T2, COUP transcription factor 2 (Homo sapiens, UniProt P24468); assay: Luminescence-based cell-based high throughput dose response assay to identify inhibitors of COUP-TFII (NR2F2).; type: functional;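 also: HEK293 cells transiently cotransfected with COUP-TFII expression vector and reporter; luciferase reporter luminescence driven by COUP-TFII from the pX2-168 reporter plasmid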
T2 sequence (P24468 whole entry): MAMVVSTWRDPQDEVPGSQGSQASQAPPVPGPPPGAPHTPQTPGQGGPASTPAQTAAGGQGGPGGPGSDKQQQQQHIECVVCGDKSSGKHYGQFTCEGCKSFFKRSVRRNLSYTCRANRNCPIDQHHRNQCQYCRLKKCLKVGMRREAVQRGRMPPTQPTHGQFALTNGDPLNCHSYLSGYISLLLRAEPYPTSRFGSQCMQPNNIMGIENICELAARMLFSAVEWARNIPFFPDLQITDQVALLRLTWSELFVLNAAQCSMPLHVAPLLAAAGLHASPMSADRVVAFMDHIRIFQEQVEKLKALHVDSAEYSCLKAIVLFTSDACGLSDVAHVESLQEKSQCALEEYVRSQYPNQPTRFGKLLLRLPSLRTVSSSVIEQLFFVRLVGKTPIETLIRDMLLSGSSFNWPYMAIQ

P388/ADR = assay: cells; type: functional; conditions: Mus musculus
SN12K1 = assay: cells; type: functional; conditions: Homo sapiens
P388 = assay: cells; type: functional; conditions: Mus musculus
Protein Wnt-3a = Protein Wnt-3a (Mus musculus, UniProt P27467); assay: antagonism of Wnt3a pathway luciferase reporter – Wnt-LIGHT cells, luminescence, selectivity assay for Gli-SUFU antagonist project, dose response (AID 651570); type: functional; conditions: read-out: IC50_Mean;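 also: Wnt-LIGHT reporter cells stimulated with conditioned medium from Wnt3a-producing cells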
Chain of Protein Wnt-3a (P27467 whole entry): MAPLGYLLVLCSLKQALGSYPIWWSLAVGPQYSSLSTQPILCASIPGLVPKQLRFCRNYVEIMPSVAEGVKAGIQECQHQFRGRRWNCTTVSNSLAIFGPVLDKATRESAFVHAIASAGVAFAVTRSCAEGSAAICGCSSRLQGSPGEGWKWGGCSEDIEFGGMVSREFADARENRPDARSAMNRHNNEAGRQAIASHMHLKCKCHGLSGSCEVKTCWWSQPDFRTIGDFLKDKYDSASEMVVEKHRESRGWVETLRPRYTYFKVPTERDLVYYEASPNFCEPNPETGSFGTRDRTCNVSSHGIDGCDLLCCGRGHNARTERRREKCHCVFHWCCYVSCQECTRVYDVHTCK

cells [6] = type: functional, cell-based
[7] = biological target: T3, Trace amine-associated receptor 1 (Homo sapiens, UniProt Q96RJ0); assay: Fluorescence-based cell-based high throughput dose response assay to identify agonists of the human trace amine associated receptor 1 (TAAR1).; type: functional
T3 sequence (Q96RJ0 whole entry): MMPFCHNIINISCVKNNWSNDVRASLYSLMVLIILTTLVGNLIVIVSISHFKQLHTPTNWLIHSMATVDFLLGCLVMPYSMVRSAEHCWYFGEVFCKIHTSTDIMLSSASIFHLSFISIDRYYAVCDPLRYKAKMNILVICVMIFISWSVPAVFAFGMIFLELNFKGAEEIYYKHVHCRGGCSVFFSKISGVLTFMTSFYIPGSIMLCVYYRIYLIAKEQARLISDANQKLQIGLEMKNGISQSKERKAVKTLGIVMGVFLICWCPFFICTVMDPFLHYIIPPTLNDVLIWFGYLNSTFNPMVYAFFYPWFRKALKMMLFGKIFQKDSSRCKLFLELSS

[8] = biological target: T3, Trace amine-associated receptor 1; assay: Counterscreen for agonists of the human trace amine associated receptor 1 (hTAAR1): Fluorescence-based cell-based high throughput dose response assay to identify hTAAR1 agonist that also desensitize TAAR1 receptor response.; type: functional
cells [9] = type: functional, cell-based; remark: listed apart in the source
[10] = biological target: SWI/SNF-related matrix-associated actin-dependent regulator of chromatin subfamily A member 2 (Homo sapiens, UniProt P51531); assay: Luminescence-based cell-based high throughput dose response assay to identify activators of the function of SWI/SNF related, matrix associated, actin dependent regulator of chromatin, subfamily a, member 2 (SMARCA2, BRM).; type: functional
Chain of SWI/SNF-related matrix-associated actin-dependent regulator of chromatin subfamily A member 2 (P51531 whole entry): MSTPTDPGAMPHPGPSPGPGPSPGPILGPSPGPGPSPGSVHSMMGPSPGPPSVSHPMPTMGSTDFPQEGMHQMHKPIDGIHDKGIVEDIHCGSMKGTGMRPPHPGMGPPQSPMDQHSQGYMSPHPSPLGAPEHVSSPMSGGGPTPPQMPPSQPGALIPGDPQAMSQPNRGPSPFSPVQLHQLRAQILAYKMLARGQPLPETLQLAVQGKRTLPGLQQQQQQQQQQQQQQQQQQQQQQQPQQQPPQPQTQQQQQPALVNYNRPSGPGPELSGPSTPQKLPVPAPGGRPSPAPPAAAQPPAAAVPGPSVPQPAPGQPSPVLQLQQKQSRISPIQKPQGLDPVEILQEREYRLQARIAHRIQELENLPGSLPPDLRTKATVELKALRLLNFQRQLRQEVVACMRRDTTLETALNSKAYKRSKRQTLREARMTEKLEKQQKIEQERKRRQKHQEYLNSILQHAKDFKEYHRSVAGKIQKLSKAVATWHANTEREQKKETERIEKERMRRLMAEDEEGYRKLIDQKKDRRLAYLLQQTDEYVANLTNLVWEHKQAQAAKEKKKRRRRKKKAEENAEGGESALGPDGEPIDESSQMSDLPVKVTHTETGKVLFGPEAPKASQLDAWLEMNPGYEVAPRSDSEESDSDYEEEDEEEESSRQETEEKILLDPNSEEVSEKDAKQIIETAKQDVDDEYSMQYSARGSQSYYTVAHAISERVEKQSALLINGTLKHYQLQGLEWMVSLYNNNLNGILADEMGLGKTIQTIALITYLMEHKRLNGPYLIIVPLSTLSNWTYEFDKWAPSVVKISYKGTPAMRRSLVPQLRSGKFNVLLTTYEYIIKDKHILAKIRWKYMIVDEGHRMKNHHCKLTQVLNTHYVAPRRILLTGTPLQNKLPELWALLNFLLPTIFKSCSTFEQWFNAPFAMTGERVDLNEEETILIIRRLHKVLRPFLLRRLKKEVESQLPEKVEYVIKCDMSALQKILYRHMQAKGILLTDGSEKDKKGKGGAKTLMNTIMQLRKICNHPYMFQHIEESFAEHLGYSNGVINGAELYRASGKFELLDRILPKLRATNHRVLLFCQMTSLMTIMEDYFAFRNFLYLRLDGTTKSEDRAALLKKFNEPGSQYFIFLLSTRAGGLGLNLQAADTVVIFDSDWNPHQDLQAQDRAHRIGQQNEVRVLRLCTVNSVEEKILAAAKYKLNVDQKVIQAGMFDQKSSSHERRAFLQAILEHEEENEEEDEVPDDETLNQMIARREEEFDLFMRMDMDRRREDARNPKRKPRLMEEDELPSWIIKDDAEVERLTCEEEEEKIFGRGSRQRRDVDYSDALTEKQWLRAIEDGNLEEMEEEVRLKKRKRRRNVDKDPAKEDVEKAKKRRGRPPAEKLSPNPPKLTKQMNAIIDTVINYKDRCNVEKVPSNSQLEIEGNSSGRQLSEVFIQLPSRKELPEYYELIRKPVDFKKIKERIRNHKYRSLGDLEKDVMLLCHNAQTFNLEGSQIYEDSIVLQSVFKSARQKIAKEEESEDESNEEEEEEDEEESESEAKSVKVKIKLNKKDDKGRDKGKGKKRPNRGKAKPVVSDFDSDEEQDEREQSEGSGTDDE

[11] = Counterscreen for activators of the function of SWI/SNF related, matrix associated, actin dependent regulator of chromatin, subfamily a, member 2 (SMARCA2, BRM): Luminescence-based cell-based high throughput dose response assay to identify non-selective compounds using the VP16 reporter assay.; type: functional
Beta-galactosidase = Beta-galactosidase (Escherichia coli, UniProt Q8VNN2); assay: Dose response counterscreen for EBI2 assay utilizing the enzyme, b-galactosidase.; type: functional
Chain of Beta-galactosidase (Q8VNN2 whole entry): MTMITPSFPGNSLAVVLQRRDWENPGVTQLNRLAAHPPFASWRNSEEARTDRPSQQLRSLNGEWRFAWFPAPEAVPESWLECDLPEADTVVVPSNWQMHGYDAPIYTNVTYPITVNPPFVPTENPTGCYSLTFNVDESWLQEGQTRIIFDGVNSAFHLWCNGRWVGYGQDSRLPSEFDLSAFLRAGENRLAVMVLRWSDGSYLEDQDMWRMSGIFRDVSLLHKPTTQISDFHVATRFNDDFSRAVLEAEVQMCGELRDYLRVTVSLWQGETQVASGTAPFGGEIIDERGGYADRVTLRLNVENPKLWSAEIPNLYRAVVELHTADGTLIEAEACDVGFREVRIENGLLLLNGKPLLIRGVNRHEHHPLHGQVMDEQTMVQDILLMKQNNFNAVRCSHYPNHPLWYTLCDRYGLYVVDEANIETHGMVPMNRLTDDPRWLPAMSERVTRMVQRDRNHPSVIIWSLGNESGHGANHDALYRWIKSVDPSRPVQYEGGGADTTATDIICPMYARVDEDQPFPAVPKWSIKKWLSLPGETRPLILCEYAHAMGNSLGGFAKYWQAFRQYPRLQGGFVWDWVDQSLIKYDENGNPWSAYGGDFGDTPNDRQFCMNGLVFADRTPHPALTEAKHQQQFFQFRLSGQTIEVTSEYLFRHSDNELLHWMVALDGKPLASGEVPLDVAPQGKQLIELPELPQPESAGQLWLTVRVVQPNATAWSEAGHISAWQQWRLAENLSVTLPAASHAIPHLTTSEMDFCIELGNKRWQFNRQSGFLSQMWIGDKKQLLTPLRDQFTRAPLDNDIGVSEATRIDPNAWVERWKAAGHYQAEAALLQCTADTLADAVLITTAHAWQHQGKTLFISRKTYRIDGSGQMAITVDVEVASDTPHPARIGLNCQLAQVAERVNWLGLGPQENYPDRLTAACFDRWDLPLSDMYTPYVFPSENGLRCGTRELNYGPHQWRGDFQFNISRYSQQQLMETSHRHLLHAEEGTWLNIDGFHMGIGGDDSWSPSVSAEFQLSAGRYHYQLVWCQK

[12] = biological target: ADP-ribosylation factor GTPase-activating protein 1 (Rattus norvegicus, UniProt Q62848); assay: Fluorescence polarization-based biochemical high throughput dose response screening assay to identify inhibitors of ADP-ribosylation factor GTPase activating protein 1 (ARFGAP1).; type: functional
Chain of ADP-ribosylation factor GTPase-activating protein 1 (Q62848 whole entry): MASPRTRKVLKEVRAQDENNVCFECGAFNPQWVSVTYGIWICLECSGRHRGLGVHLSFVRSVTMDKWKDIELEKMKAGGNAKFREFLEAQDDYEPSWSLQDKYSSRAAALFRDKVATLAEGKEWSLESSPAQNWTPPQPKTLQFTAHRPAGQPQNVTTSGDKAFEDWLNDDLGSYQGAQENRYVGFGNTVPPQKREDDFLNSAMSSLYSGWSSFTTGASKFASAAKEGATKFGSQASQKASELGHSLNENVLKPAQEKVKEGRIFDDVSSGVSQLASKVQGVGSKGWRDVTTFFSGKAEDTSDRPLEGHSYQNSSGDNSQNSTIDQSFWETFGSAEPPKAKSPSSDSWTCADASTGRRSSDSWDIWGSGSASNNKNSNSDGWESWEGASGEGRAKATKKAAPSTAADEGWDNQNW

[13] = Luminescence Cell-Based Dose Retest to Confirm Inhibitors of Cancer Stem Cells. [Related pubchem assays (depositor defined):AID2717, AID2721]; type: functional; conditions: Homo sapiens
[14] = biological target: Glucose-6-phosphate 1-dehydrogenase (Homo sapiens, UniProt P11413); assay: inhibition of Homo sapiens G6PD, dose series – biochemical, fluorescence, selectivity assay for P. falciparum G6PD inhibitor project, dose response (AID 504792); type: functional
Paired box protein Pax-8 = Paired box protein Pax-8 (Homo sapiens, UniProt Q06710); assay: PAX8 transcriptional activity inhibition in RMG-I – RMG-I cells, luciferase, cherry-pick, dose response (AID 687027); type: functional, cell-based;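 also: luciferase reporter driven by Pax8 target thyroperoxidase promoter measured by SteadyGlo luminescence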
Chain of Paired box protein Pax-8 (Q06710 whole entry): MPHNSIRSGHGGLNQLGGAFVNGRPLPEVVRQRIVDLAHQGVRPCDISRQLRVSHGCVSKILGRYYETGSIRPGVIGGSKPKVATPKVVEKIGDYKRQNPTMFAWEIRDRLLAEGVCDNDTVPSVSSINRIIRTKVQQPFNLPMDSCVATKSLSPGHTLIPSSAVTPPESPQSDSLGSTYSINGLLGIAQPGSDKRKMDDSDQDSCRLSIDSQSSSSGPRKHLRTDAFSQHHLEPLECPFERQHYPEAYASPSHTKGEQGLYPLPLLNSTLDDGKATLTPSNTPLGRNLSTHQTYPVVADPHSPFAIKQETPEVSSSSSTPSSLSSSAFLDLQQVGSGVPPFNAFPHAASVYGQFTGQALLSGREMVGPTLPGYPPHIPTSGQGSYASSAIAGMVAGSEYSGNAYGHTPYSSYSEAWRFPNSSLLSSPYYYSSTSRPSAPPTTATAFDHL

[15] = A2780 cell killing – plate reader, dry powder samples, cytotoxicity control, dose response (AID 743046); type: functional, cell-based
[16] = OVCAR-3 cell viability loss – plate reader, dry powder samples, PAX8 inhibitor project, dose response (AID 743044); type: functional, cell-based
[17] = OVCAR8 cell viability loss – plate reader, dry powder samples, PAX8 project, dose response (AID 743197); type: functional, cell-based; conditions: OVCAR-8
[18] = IGROV1 cell killing – plate reader, dry powder samples, PAX8 inhibitor project, dose response (AID 743043); type: functional, cell-based; conditions: IGROV-1
Cytochrome P450 2C19 = Cytochrome P450 2C19 (Homo sapiens, UniProt P33261); assay: Cytochrome panel assay with activity outcomes. Panel member name: p450-cyp2c19 Compounds with AC50 equal or less than 10 uM are considered active; type: functional; conditions: read-out: AC50
Chain of Cytochrome P450 2C19 (P33261 whole entry): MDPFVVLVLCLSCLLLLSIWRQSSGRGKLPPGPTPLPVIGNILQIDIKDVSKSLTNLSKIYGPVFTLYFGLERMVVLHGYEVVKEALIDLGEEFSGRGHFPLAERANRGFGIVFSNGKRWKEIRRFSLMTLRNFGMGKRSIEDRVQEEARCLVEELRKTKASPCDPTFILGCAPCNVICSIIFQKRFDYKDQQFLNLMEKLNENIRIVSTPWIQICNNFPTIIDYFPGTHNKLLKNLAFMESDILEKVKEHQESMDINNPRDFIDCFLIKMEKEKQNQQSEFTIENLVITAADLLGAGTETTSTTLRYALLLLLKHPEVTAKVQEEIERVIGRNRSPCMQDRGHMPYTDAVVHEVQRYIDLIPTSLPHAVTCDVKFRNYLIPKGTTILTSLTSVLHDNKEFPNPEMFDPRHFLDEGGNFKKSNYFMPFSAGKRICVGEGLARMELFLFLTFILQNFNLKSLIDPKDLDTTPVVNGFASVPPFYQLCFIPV

Cytochrome P450 2C9 = Cytochrome P450 2C9 (Homo sapiens, UniProt P11712)
Chain of Cytochrome P450 2C9 (P11712 whole entry): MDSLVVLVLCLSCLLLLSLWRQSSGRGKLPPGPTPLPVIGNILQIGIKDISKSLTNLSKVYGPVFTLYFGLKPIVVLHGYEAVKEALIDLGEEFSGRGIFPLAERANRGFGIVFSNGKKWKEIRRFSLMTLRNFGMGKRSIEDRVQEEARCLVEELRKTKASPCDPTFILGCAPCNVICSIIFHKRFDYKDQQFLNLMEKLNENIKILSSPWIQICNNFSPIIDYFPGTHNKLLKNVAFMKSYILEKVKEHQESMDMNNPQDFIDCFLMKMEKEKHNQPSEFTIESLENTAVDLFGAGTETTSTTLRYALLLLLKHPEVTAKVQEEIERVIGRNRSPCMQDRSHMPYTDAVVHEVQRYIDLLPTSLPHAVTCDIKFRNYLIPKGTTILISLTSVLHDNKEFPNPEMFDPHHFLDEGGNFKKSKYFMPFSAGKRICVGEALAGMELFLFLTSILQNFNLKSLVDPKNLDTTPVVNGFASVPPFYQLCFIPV

Vero = assay: cells; type: functional, Chlorocebus sabaeus; conditions: Chlorocebus sabaeus, Vero

SMILES: Cc1cc2c(ccc3c2no[n+]3[O-])nn1
- IC50 (Galanin receptor type 3): > 29.9 µM (inactive)
- EC50 (cells [1]): > 29.9 µM (inactive)

SMILES: CCCCCCn1c(NCC)nc2c1c(=O)n(C)c(=O)n2C
- AC50 [2]: 0.834 µM (active)
- AC50 [3]: 2.55 µM (active)
- AC50 [4]: 9.18 µM (active)
- IC50 (Galanin receptor type 3): > 1.11 µM (active)
- EC50 (cells [1]): > 29.9 µM (inactive)
- IC50 [5]: 9.46 µM (active)

SMILES: CCOCCOc1ccc(OCCOCC)cc1
- GI50 (P388/ADR): 1.45 µM (inactive)
- GI50 (SN12K1): 15 µM (inactive)
- GI50 (P388): 3.36 µM (inactive)

SMILES: Cc1ccc(NC(=O)COc2ccccc2C(N)=O)cc1S(=O)(=O)N1CCCCCC1
- IC50 (Protein Wnt-3a): 9.3 µM (active)

SMILES: N#Cc1c(N)sc2c1CCN(CCc1ccccc1)C2
- IC50 (cells [6]): > 29.9 µM (inactive)
- EC50 [7]: 1.58 µM (active)
- IC50 [8]: 9.09 µM (active)
- EC50 (cells [9]): > 29.9 µM (inactive)

SMILES: C=C1C(=O)[C@]23C[C@H]1CCC2[C@]1(C)C(=O)CC[C@@](C)(C(=O)O)C1C[C@@H]3O (stereo partly drawn)
- EC50 [10]: > 91.2 µM (inactive)
- EC50 [11]: > 91.2 µM (inactive)

SMILES: Cc1ccccc1-c1nc(CS(=O)(=O)CC(=O)NCCc2ccccc2)c(C)o1
- IC50 (cells [6]): > 29.9 µM (inactive)
- EC50 [7]: 3.59 µM (active)
- IC50 [8]: 8.58 µM (active)
- EC50 (cells [9]): > 29.9 µM (inactive)

SMILES: CN(C)S(=O)(=O)N1CCN(CC(O)COc2ccc3cc(Br)ccc3c2)CC1 (stereo not drawn)
- IC50 (Beta-galactosidase): > 80 µM (inactive)

SMILES: COC(=O)c1ccc(Nc2nc(-c3ccncc3)nc3ccccc23)cc1
- IC50 [12]: 98.4 µM (inactive)

SMILES: CCOC(=O)c1c(NC(=O)C(=O)N/N=C/c2ccccc2O)sc2c1CCCCC2
- AC50 [13]: 2.31 µM (active)
- IC50 (Protein Wnt-3a): 6.55 µM (active)

SMILES: Cc1ccc(/C=C/C(=O)NC2CCCCCCC2)o1
- IC50 [14]: > 80 µM (inactive)
- EC50 [10]: > 91.1 µM (inactive)
- EC50 [11]: > 91.1 µM (inactive)

SMILES: Fc1ccc(CN2CCN(c3ncc(Cc4ccccc4)cn3)CC2)c(Cl)c1
- IC50 (Galanin receptor type 3): 1.06 µM (active)
- EC50 (cells [1]): > 29.9 µM (inactive)
- IC50 [5]: 10.1 µM (inactive)

SMILES: C[C@@H]1CCCCO[C@@H](CN(C)C(=O)NC2CCCCC2)[C@H](C)CN([C@H](C)CO)C(=O)c2cc(NS(=O)(=O)c3ccc(Cl)cc3)ccc2O1
- AC50 (Paired box protein Pax-8): 7.57 µM (active)
- AC50 [15]: 15.7 µM (active)
- AC50 [16]: 38.3 µM (active)
- AC50 [17]: > 70 µM (inactive)

SMILES: CC(=O)NCCc1ccc(C(=O)COC(=O)c2cccs2)cc1
- EC50 [10]: > 91.1 µM (inactive)
- EC50 [11]: > 91.1 µM (inactive)

SMILES: CSCC(CO)NC(=O)/C=C/c1c(C)[nH]c(=O)[nH]c1=O (stereo not drawn)
- GI50 (P388/ADR): > 875 µM (inactive)
- GI50 (SN12K1): 518 µM (inactive)
- GI50 (P388): 818 µM (inactive)

SMILES: COc1ccc(-c2ccc3c(c2)[C@@H]2[C@@H](CCN2C(=O)C2CCCCC2)[C@H](CO)N3C)cc1
- AC50 (Paired box protein Pax-8): 6.75 µM (active)
- AC50 [15]: 10.7 µM (active)
- AC50 [16]: 25.2 µM (active)
- AC50 [18]: 47.5 µM (active)
- AC50 [17]: 32.7 µM (active)

SMILES: C[C@@H]1CN([C@H](C)CO)C(=O)c2cc(NC(=O)NC3CCCCC3)ccc2O[C@@H](C)CCCCO[C@H]1CN(C)Cc1ccc(C(F)(F)F)cc1
- AC50 (Paired box protein Pax-8): 6.85 µM (active)
- AC50 [15]: 25.7 µM (active)
- AC50 [16]: 12.7 µM (active)
- AC50 [18]: 24.8 µM (active)
- AC50 [17]: 54.1 µM (active)

SMILES: CN(Cc1ccc(OCC(O)CN2CCCCC2)cc1)Cc1ccnc2ccccc12 (stereo not drawn)
- AC50 [2]: 1.21 µM (active)
- AC50 [3]: 4.07 µM (active)
- AC50 [4]: 1.37 µM (active)
- IC50 (Protein Wnt-3a): 3.4 µM (active)

SMILES: O=C(COc1ccc2ccccc2c1)N1CCN(C(=O)c2cccnc2)CC1
- AC50 (Cytochrome P450 2C19): 15.8 µM (inconclusive)
- IC50 (Beta-galactosidase): > 80 µM (inactive)
- AC50 (Cytochrome P450 2C9): 31.6 µM (inconclusive)

SMILES: COc1ccc(OC)c(Cc2cnc3nc(N)nc(N)c3c2C)c1 [PIRITREXIM ISETHIONATE]
- CC50 (Vero): 0.37 µM (active)
- IC50 (Protein Wnt-3a): 3.35 µM (active)

SMILES: Oc1cnnc(Nc2ccccc2)n1
- IC50 (cells [6]): > 29.9 µM (inactive)
- EC50 [7]: 4.6 µM (active)
- IC50 [8]: > 29.9 µM (inactive)
- EC50 (cells [9]): > 29.9 µM (inactive)

SMILES: O=C(N[C@@H](Cc1cccnc1)C(=O)N1CCC[C@H]1C(=O)NCCc1ccccc1Cl)C1CCCC1
- IC50 (cells [6]): > 29.9 µM (inactive)
- EC50 [7]: 2.91 µM (active)
- IC50 [8]: 3.72 µM (active)
- EC50 (cells [9]): > 29.9 µM (inactive)
